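Cultured in 96-well plates, cells were exposed to test compound for 48 hours across five concentrations. GI50: concentration for 50% inhibition of growth.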 Calls of active or inactive are those of the source. Rule as the data show it: active = GI50 up to about 1.1 µM and inactive = higher. Where a SMILES comes first, the peptide text is derived from it. [ ]: non-standard residue; d: D form. 2Nal = N[CH](Cc1ccc2ccccc2c1)C(=O)O
What was measured:
Test in all cases: NCI anticancer screen, dose series, 48 h
OVCAR-5 = test system: OVCAR-5
KM12 = test system: KM12
NCI-H23 = test system: NCI-H23
NCI-H460 = test system: NCI-H460
HL-60 = test system: HL-60
ACHN = test system: ACHN
OVCAR-4 = test system: OVCAR-4
HOP-62 = test system: HOP-62
HOP-92 = test system: HOP-92
SNB-19 = test system: SNB-19
A549 = test system: A549
DMS-114 = test system: DMS-114
COLO 205 = test system: COLO 205
SK-MEL-2 = test system: SK-MEL-2
DMS-273 = test system: DMS-273
LXFL 529 = test system: LXFL 529
M19-MEL = test system: M19-MEL
CCRF-CEM = test system: CCRF-CEM
RPMI-8226 = test system: RPMI-8226
HOP-18 = test system: HOP-18
OVCAR-8 = test system: OVCAR-8
Malme-3M = test system: Malme-3M
XF498 = test system: XF498
HCC 2998 = test system: HCC 2998
A498 = test system: A498
M14 = test system: M14
SNB-78 = test system: SNB-78
HT-29 = test system: HT-29
RXF 393 = test system: RXF 393
NCI-H522 = test system: NCI-H522
MOLT-4 = test system: MOLT-4
SK-MEL-28 = test system: SK-MEL-28
SF-539 = test system: SF-539
SW-620 = test system: SW-620
NCI-H226 = test system: NCI-H226
HCT-116 = test system: HCT-116
UACC-257 = test system: UACC-257
EKVX = test system: EKVX
SN12C = test system: SN12C
SK-MEL-5 = test system: SK-MEL-5
SF-295 = test system: SF-295
U-251 = test system: U-251
DLD-1 = test system: DLD-1
UO-31 = test system: UO-31
K562 = test system: K562
SK-OV-3 = test system: SK-OV-3
UACC-62 = test system: UACC-62
LOX IMVI = test system: LOX IMVI
SR = test system: SR
SNB-75 = test system: SNB-75
786-0 = test system: 786-0
OVCAR-3 = test system: OVCAR-3
SF-268 = test system: SF-268
IGROV-1 = test system: IGROV-1
CAKI-1 = test system: CAKI-1
TK-10 = test system: TK-10
MDA-MB-231 = test system: MDA-MB-231
MCF7 = test system: MCF7
Hs-578T = test system: Hs-578T
T47D = test system: T47D
KM-20L2 = test system: KM-20L2
HCT-15 = test system: HCT-15
DU-145 = test system: DU-145
PC-3 = test system: PC-3
NCI/ADR-RES = test system: NCI/ADR-RES
MDA-MB-435 = test system: MDA-MB-435

Q: `CC(C)CC12CC3CCC(CNC1=O)C32C` (configuration not stated) was tested. Which GI50 (OVCAR-5) did it give?
A: 96.8 µM (inactive)

Q: And the GI50 (KM12)?
A: > 100 µM (inactive)

Q: What about the GI50 (NCI-H23) of the same compound?
A: > 100 µM (inactive)

Q: What about the GI50 (NCI-H460) of the same compound?
A: > 100 µM (inactive)

Q: And the GI50 (HL-60)?
A: 31.9 µM (inactive)

Q: And the GI50 (ACHN)?
A: > 100 µM (inactive)

Q: What about the GI50 (OVCAR-4) of the same compound?
A: > 100 µM (inactive)

Q: What about the GI50 (HOP-62) of the same compound?
A: > 100 µM (inactive)

Q: What about the GI50 (HOP-92) of the same compound?
A: > 100 µM (inactive)

Q: What about the GI50 (SNB-19) of the same compound?
A: > 100 µM (inactive)

Q: What about the GI50 (A549) of the same compound?
A: > 100 µM (inactive)

Q: What about the GI50 (DMS-114) of the same compound?
A: 78 µM (inactive)

Q: What about the GI50 (COLO 205) of the same compound?
A: > 100 µM (inactive)

Q: And the GI50 (SK-MEL-2)?
A: > 100 µM (inactive)

Q: And the GI50 (DMS-273)?
A: > 100 µM (inactive)

Q: What about the GI50 (LXFL 529) of the same compound?
A: > 100 µM (inactive)

Q: And the GI50 (M19-MEL)?
A: > 100 µM (inactive)

Q: And the GI50 (CCRF-CEM)?
A: 35.5 µM (inactive)

Q: And the GI50 (RPMI-8226)?
A: 49.9 µM (inactive)

Q: What about the GI50 (HOP-18) of the same compound?
A: > 100 µM (inactive)

Q: And the GI50 (OVCAR-8)?
A: > 100 µM (inactive)

Q: And the GI50 (Malme-3M)?
A: > 100 µM (inactive)

Q: And the GI50 (XF498)?
A: > 100 µM (inactive)

Q: And the GI50 (HCC 2998)?
A: > 100 µM (inactive)

Q: What about the GI50 (A498) of the same compound?
A: > 100 µM (inactive)

Q: What about the GI50 (M14) of the same compound?
A: > 100 µM (inactive)

Q: What about the GI50 (SNB-78) of the same compound?
A: > 100 µM (inactive)

Q: What about the GI50 (HT-29) of the same compound?
A: 72.9 µM (inactive)

Q: And the GI50 (RXF 393)?
A: > 100 µM (inactive)

Q: What about the GI50 (NCI-H522) of the same compound?
A: > 100 µM (inactive)

Q: And the GI50 (MOLT-4)?
A: 40.5 µM (inactive)

Q: What about the GI50 (SK-MEL-28) of the same compound?
A: > 100 µM (inactive)

Q: What about the GI50 (SF-539) of the same compound?
A: > 100 µM (inactive)

Q: And the GI50 (SW-620)?
A: > 100 µM (inactive)

Q: What about the GI50 (NCI-H226) of the same compound?
A: > 100 µM (inactive)

Q: And the GI50 (HCT-116)?
A: 78.9 µM (inactive)

Q: And the GI50 (UACC-257)?
A: > 100 µM (inactive)

Q: And the GI50 (EKVX)?
A: > 100 µM (inactive)

Q: What about the GI50 (SN12C) of the same compound?
A: > 100 µM (inactive)

Q: And the GI50 (SK-MEL-5)?
A: > 100 µM (inactive)

Q: And the GI50 (SF-295)?
A: > 100 µM (inactive)

Q: And the GI50 (U-251)?
A: > 100 µM (inactive)

Q: What about the GI50 (DLD-1) of the same compound?
A: > 100 µM (inactive)

Q: What about the GI50 (UO-31) of the same compound?
A: > 100 µM (inactive)

Q: What about the GI50 (K562) of the same compound?
A: 43.5 µM (inactive)

Q: And the GI50 (SK-OV-3)?
A: > 100 µM (inactive)

Q: And the GI50 (UACC-62)?
A: > 100 µM (inactive)

Q: And the GI50 (LOX IMVI)?
A: > 100 µM (inactive)

Q: What about the GI50 (SR) of the same compound?
A: 63.7 µM (inactive)

Q: And the GI50 (SNB-75)?
A: > 100 µM (inactive)

Q: And the GI50 (786-0)?
A: > 100 µM (inactive)

Q: And the GI50 (OVCAR-3)?
A: > 100 µM (inactive)

Q: And the GI50 (SF-268)?
A: > 100 µM (inactive)

Q: What about the GI50 (IGROV-1) of the same compound?
A: > 100 µM (inactive)

Q: What about the GI50 (CAKI-1) of the same compound?
A: > 100 µM (inactive)

Q: And the GI50 (TK-10)?
A: > 100 µM (inactive)

Q: `CC(NC(=O)C(N)Cc1ccccc1)C(=O)NC(Cc1ccc(O)cc1)C(=O)NC(Cc1c[nH]c2ccccc12)C(=O)NC(CCCCN)C(=O)NC(C(=O)NC(C)C(=O)NC(Cc1ccc2ccccc2c1)C(N)=O)C(C)C` (configuration not stated) (H-FAYWKVA[2Nal]-NH2; configuration not given here) was tested. Which GI50 (OVCAR-5) did it give?
A: > 12.5 µM (inactive)

Q: What about the GI50 (KM12) of the same compound?
A: > 12.5 µM (inactive)

Q: What about the GI50 (NCI-H23) of the same compound?
A: > 12.5 µM (inactive)

Q: And the GI50 (NCI-H460)?
A: > 12.5 µM (inactive)

Q: And the GI50 (HL-60)?
A: > 12.5 µM (inactive)

Q: And the GI50 (ACHN)?
A: > 12.5 µM (inactive)

Q: And the GI50 (OVCAR-4)?
A: > 12.5 µM (inactive)

Q: And the GI50 (HOP-62)?
A: > 12.5 µM (inactive)

Q: What about the GI50 (SNB-19) of the same compound?
A: 24.6 µM (inactive)

Q: What about the GI50 (A549) of the same compound?
A: > 12.5 µM (inactive)

Q: What about the GI50 (DMS-114) of the same compound?
A: 31.7 µM (inactive)

Q: And the GI50 (COLO 205)?
A: > 12.5 µM (inactive)

Q: What about the GI50 (SK-MEL-2) of the same compound?
A: > 12.5 µM (inactive)

Q: And the GI50 (MDA-MB-231)?
A: > 12.5 µM (inactive)

Q: And the GI50 (DMS-273)?
A: 24.6 µM (inactive)

Q: And the GI50 (MCF7)?
A: > 12.5 µM (inactive)

Q: And the GI50 (M19-MEL)?
A: 27 µM (inactive)

Q: What about the GI50 (CCRF-CEM) of the same compound?
A: > 12.5 µM (inactive)

Q: What about the GI50 (Hs-578T) of the same compound?
A: > 12.5 µM (inactive)

Q: And the GI50 (RPMI-8226)?
A: > 12.5 µM (inactive)

Q: What about the GI50 (HOP-18) of the same compound?
A: 23.9 µM (inactive)

Q: What about the GI50 (OVCAR-8) of the same compound?
A: > 12.5 µM (inactive)

Q: And the GI50 (Malme-3M)?
A: > 12.5 µM (inactive)

Q: What about the GI50 (XF498) of the same compound?
A: 21.4 µM (inactive)

Q: And the GI50 (HCC 2998)?
A: > 12.5 µM (inactive)

Q: What about the GI50 (T47D) of the same compound?
A: > 12.5 µM (inactive)

Q: What about the GI50 (KM-20L2) of the same compound?
A: 27.1 µM (inactive)

Q: And the GI50 (A498)?
A: > 12.5 µM (inactive)

Q: What about the GI50 (M14) of the same compound?
A: > 12.5 µM (inactive)

Q: What about the GI50 (SNB-78) of the same compound?
A: 44.3 µM (inactive)

Q: What about the GI50 (HT-29) of the same compound?
A: > 12.5 µM (inactive)

Q: What about the GI50 (RXF 393) of the same compound?
A: > 12.5 µM (inactive)

Q: And the GI50 (NCI-H522)?
A: > 12.5 µM (inactive)

Q: And the GI50 (HCT-15)?
A: > 12.5 µM

Q: And the GI50 (SK-MEL-28)?
A: > 12.5 µM (inactive)

Q: And the GI50 (SF-539)?
A: > 12.5 µM (inactive)

Q: And the GI50 (SW-620)?
A: > 12.5 µM (inactive)

Q: What about the GI50 (NCI-H226) of the same compound?
A: > 12.5 µM (inactive)

Q: And the GI50 (HCT-116)?
A: > 12.5 µM (inactive)

Q: And the GI50 (DU-145)?
A: > 12.5 µM (inactive)

Q: And the GI50 (UACC-257)?
A: > 12.5 µM (inactive)

Q: What about the GI50 (EKVX) of the same compound?
A: > 12.5 µM (inactive)

Q: What about the GI50 (SN12C) of the same compound?
A: > 12.5 µM (inactive)

Q: What about the GI50 (SK-MEL-5) of the same compound?
A: > 12.5 µM (inactive)

Q: And the GI50 (PC-3)?
A: > 12.5 µM (inactive)

Q: And the GI50 (NCI/ADR-RES)?
A: > 12.5 µM (inactive)

Q: And the GI50 (SF-295)?
A: > 12.5 µM (inactive)

Q: What about the GI50 (U-251) of the same compound?
A: > 12.5 µM (inactive)

Q: What about the GI50 (DLD-1) of the same compound?
A: 31.8 µM (inactive)

Q: And the GI50 (UO-31)?
A: > 12.5 µM (inactive)

Q: And the GI50 (K562)?
A: > 12.5 µM (inactive)

Q: What about the GI50 (SK-OV-3) of the same compound?
A: > 12.5 µM (inactive)

Q: And the GI50 (UACC-62)?
A: > 12.5 µM (inactive)

Q: And the GI50 (LOX IMVI)?
A: > 12.5 µM (inactive)

Q: What about the GI50 (MDA-MB-435) of the same compound?
A: > 12.5 µM (inactive)

Q: And the GI50 (SNB-75)?
A: 28.1 µM (inactive)

Q: What about the GI50 (786-0) of the same compound?
A: > 12.5 µM (inactive)

Q: What about the GI50 (OVCAR-3) of the same compound?
A: > 12.5 µM (inactive)

Q: What about the GI50 (SF-268) of the same compound?
A: > 12.5 µM (inactive)

Q: And the GI50 (IGROV-1)?
A: > 12.5 µM (inactive)

Q: And the GI50 (CAKI-1)?
A: > 12.5 µM (inactive)
